Measurements reported in PMC6222927, “Aminobenzosuberone Scaffold as a Modular Chemical Tool for the Inhibition of Therapeutically Relevant M1 Aminopeptidases” (Molecules : A Journal of Synthetic Chemistry and Natural …, 2018).

Tests used:
[1] = target: T1, human endoplasmic reticulum aminopeptidase 2 (rHsERAP2) (Homo sapiens, UniProt Q6P179); test: rHsERAP2 inhibition, R-AMC fluorigenic substrate; format: biochemical; conditions: 50 µM R-AMC
T1 construct: made in house; host or cells: Hi5 insect cells (baculovirus produced in sf9)
T1 sequence (Q6P179 whole entry): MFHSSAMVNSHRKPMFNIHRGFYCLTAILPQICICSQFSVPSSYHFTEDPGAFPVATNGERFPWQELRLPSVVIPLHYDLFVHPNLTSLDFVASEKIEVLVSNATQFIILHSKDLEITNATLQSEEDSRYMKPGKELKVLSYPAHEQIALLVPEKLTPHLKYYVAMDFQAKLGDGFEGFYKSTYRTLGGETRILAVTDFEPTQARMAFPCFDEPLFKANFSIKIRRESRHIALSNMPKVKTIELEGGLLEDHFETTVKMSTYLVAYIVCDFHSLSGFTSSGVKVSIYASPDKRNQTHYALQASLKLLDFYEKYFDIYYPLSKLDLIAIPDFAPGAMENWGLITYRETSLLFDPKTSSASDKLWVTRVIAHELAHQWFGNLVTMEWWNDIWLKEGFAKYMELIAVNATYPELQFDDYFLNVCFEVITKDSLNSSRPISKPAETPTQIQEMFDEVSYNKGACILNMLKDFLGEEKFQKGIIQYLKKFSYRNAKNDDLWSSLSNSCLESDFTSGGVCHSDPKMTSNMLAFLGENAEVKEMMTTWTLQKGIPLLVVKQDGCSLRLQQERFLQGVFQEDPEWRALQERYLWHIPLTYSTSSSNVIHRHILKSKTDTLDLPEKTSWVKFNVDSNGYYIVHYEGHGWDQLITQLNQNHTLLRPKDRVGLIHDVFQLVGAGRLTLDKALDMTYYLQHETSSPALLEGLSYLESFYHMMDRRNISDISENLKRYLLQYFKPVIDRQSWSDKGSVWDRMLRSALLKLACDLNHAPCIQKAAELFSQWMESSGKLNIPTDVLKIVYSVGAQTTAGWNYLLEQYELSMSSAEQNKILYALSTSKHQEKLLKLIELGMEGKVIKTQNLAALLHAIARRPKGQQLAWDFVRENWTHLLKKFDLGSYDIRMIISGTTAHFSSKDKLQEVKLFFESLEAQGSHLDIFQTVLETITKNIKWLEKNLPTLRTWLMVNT
Method: (§1) The enzymatic activity of HsERAP1, HsERAP2 and HsIRAP was determined by following the time-dependent increase in fluorescence at 460 nm (excitation: 380 nm) of the fluorigenic substrates L-Leucine-7-amido-4-methyl coumarin (L-AMC; Sigma, Darmstatd, Germany) for HsERAP1 and HsIRAP and L-arginyl-7-amido-4-methyl coumarin (R-AMC; Sigma) for HsERAP2. […] The reaction was followed for 10 min at room temperature and the remaining enzymatic activity was calculated by measuring the slope of the time course.

E. coli rEcPepN = E. coli rEcPepN (Escherichia coli, UniProt P04825); test: rEcPepN inhibition, Leu-pNA substrate, Dixon method; format: biochemical
E. coli rEcPepN, sequence (P04825 whole entry): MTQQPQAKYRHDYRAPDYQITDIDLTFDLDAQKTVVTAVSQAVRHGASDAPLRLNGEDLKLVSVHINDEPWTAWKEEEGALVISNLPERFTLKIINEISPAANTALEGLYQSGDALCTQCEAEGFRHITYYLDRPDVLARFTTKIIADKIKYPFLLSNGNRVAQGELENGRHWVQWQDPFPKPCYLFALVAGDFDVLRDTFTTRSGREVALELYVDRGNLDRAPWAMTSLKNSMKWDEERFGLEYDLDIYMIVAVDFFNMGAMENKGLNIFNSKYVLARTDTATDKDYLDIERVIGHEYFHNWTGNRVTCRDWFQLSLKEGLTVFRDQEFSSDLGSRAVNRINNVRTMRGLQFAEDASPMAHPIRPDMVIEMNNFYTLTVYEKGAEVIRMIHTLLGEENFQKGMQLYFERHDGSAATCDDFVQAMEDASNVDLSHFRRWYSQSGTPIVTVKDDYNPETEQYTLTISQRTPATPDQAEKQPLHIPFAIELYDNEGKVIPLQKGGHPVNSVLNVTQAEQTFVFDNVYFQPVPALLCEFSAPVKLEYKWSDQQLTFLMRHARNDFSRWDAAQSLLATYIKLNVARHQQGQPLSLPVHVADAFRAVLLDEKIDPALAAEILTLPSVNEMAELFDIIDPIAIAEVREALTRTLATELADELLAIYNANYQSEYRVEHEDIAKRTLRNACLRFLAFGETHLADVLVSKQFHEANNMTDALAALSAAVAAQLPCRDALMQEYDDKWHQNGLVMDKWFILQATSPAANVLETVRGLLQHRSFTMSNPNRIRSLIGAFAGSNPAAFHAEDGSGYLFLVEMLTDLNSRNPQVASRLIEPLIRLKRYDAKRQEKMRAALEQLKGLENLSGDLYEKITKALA
Method: Enzyme activity assays were carried out in 10 mM Tris-HCl buffer at pH 7.5 with 150 mM NaCl, enzyme, 100 µM substrate (Leu-pNA) in a 100 μL reaction at 37 °C. The absorbance was read at 405 nm. Concentrations ranging from 1 nM to 100 μM of inhibitors (dissolved in DMSO) were incubated with each of the enzymes ([…]) for 30 min at 37 °C in a 96 well plate. After addition of the substrate, immediate increase in absorption was measured. All inhibition assays were performed in triplicates and initial velocities were measured. Percentage inhibition and log values of inhibitor concentrations were plotted using SigmaPlot to determine IC50 values. Ki values were determined by the Dixon method. The assay consists of reaction buffer, enzyme and varied concentrations of Leu-pNA (25, 50, 100, 200 and 400 µM). […] Data were plotted as 1/rate versus inhibitor concentration for each substrate concentration and a linear fit was calculated by non-linear regression using SigmaPlot12.5. All the reactions were performed in triplicates, SD values were reported.

pAPN from porcine kidney = conditions: Dixon plots; cited from earlier work
[2] = target: human puromycine sensitive aminopeptidase (rHsPSA) (Homo sapiens, UniProt P55786); test: rHsPSA inhibition, Leu-pNA substrate, Dixon method; format: biochemical; conditions: triplicate, SD
human puromycine sensitive aminopeptidase (rHsPSA), sequence (P55786 whole entry): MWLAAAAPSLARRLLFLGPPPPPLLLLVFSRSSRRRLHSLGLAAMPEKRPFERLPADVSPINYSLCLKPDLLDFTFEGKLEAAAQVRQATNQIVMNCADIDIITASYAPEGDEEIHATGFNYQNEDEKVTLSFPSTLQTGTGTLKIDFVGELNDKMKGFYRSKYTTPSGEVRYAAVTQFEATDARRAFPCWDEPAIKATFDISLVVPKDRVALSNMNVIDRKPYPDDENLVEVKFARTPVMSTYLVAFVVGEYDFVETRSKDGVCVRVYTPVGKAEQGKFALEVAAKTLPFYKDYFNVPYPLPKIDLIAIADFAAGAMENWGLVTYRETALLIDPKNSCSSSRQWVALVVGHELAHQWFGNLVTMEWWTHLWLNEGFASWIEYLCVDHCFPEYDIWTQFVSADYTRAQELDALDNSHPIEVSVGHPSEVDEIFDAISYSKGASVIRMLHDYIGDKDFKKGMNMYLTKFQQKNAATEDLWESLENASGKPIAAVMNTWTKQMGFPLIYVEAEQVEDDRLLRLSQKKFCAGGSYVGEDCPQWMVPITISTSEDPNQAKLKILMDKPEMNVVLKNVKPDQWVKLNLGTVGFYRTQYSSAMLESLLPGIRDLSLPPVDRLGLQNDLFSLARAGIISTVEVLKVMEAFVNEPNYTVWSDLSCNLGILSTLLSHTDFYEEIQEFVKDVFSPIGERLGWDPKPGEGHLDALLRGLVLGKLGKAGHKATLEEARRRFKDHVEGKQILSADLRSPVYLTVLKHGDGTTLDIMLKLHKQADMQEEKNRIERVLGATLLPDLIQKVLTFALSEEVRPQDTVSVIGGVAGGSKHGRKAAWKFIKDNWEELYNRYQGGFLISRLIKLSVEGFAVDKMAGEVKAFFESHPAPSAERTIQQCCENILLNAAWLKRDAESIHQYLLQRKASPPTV
Method: Enzyme activity assays were carried out in 10 mM Tris-HCl buffer at pH 7.5 with 150 mM NaCl, enzyme, 100 µM substrate (Leu-pNA) in a 100 μL reaction at 37 °C. The absorbance was read at 405 nm. Concentrations ranging from 1 nM to 100 μM of inhibitors (dissolved in DMSO) were incubated with each of the enzymes ([…]) for 30 min at 37 °C in a 96 well plate. After addition of the substrate, immediate increase in absorption was measured. All inhibition assays were performed in triplicates and initial velocities were measured. Percentage inhibition and log values of inhibitor concentrations were plotted using SigmaPlot to determine IC50 values. Ki values were determined by the Dixon method. The assay consists of reaction buffer, enzyme and varied concentrations of Leu-pNA (25, 50, 100, 200 and 400 µM). […]. All the reactions were performed in triplicates, SD values were reported.

[3] = target: T2, human Leucyl-cystinyl aminopeptidase (rHsIRAP) (Homo sapiens, UniProt Q9UIQ6); test: rHsIRAP inhibition, L-AMC fluorigenic substrate; format: biochemical; conditions: 50 µM L-AMC; read-out: IC50 rHsIRAP
T2 construct: made in house; host or cells: Hi5 insect cells (baculovirus produced in sf9)
T2 sequence (Q9UIQ6 155-1025 limits assumed): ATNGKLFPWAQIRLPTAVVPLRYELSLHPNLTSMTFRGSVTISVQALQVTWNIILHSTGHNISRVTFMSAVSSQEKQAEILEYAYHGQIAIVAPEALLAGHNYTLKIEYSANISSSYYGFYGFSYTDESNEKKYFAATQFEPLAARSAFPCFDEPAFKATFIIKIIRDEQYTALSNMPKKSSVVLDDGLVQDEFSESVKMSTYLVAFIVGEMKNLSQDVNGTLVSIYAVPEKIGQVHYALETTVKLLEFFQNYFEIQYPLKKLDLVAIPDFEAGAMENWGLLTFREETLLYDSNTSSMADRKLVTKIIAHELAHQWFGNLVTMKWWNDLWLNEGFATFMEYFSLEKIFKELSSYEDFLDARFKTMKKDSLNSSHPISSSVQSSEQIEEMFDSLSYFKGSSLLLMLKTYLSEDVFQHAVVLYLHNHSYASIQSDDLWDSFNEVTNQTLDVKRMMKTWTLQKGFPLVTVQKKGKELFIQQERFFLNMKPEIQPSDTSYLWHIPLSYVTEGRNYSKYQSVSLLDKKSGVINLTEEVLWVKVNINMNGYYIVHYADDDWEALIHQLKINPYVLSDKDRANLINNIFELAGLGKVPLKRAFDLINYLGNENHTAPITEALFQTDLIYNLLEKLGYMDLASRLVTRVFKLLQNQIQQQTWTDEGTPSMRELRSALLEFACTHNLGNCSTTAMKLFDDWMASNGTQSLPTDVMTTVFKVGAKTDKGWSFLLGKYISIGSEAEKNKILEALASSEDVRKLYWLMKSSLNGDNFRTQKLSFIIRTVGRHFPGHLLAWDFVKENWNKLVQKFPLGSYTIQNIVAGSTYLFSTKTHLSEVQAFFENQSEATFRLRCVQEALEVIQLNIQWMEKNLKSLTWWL
Method: The enzymatic activity of HsERAP1, HsERAP2 and HsIRAP was determined by following the time-dependent increase in fluorescence at 460 nm (excitation: 380 nm) of the fluorigenic substrates L-Leucine-7-amido-4-methyl coumarin (L-AMC; Sigma, Darmstatd, Germany) for HsERAP1 and HsIRAP and L-arginyl-7-amido-4-methyl coumarin (R-AMC; Sigma) for HsERAP2. […]. The reaction was followed for 10 min at room temperature and the remaining enzymatic activity was calculated by measuring the slope of the time course. […]

[4] = target: T3, human endoplasmic reticulum aminopeptidase 1 (rHsERAP1) (Homo sapiens, UniProt Q9NZ08); test: rHsERAP1 inhibition, L-AMC fluorigenic substrate; format: biochemical; conditions: 50 µM L-AMC
T3 construct: made in house; host or cells: Hi5 insect cells (baculovirus produced in sf9)
T3 sequence (Q9NZ08 whole entry): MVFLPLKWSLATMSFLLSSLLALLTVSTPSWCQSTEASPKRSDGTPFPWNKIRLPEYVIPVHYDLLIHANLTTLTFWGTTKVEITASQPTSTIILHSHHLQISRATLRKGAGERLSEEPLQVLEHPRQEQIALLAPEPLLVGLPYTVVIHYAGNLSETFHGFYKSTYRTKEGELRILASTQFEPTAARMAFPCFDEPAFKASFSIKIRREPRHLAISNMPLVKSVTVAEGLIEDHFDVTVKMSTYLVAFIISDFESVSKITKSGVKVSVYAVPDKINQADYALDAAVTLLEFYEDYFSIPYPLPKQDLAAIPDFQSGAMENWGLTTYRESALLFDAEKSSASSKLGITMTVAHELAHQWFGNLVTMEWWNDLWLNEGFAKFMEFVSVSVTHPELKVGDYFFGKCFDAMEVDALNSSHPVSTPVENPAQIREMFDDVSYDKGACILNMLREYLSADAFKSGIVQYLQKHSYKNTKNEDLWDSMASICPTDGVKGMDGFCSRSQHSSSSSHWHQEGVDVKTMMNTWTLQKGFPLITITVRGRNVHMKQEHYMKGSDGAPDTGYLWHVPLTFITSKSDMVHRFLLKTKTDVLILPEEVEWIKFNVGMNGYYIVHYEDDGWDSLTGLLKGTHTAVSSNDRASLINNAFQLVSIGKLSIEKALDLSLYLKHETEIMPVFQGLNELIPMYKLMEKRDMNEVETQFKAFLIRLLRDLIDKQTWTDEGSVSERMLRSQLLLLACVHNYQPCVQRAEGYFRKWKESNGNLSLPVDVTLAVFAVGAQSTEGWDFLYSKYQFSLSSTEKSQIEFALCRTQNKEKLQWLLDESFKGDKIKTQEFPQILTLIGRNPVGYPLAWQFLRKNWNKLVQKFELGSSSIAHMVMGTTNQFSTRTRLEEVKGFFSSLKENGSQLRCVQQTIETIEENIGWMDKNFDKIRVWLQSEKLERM
Method: as §1

P. falciparum rPfAM1 = target: T4, P. falciparum rPfAM1 (Plasmodium falciparum, UniProt O96935); test: biochemical; format: biochemical
T4 construct: made in house; host or cells: Escherichia coli Rosetta 2 (DE3)
T4 sequence (O96935 1-1085): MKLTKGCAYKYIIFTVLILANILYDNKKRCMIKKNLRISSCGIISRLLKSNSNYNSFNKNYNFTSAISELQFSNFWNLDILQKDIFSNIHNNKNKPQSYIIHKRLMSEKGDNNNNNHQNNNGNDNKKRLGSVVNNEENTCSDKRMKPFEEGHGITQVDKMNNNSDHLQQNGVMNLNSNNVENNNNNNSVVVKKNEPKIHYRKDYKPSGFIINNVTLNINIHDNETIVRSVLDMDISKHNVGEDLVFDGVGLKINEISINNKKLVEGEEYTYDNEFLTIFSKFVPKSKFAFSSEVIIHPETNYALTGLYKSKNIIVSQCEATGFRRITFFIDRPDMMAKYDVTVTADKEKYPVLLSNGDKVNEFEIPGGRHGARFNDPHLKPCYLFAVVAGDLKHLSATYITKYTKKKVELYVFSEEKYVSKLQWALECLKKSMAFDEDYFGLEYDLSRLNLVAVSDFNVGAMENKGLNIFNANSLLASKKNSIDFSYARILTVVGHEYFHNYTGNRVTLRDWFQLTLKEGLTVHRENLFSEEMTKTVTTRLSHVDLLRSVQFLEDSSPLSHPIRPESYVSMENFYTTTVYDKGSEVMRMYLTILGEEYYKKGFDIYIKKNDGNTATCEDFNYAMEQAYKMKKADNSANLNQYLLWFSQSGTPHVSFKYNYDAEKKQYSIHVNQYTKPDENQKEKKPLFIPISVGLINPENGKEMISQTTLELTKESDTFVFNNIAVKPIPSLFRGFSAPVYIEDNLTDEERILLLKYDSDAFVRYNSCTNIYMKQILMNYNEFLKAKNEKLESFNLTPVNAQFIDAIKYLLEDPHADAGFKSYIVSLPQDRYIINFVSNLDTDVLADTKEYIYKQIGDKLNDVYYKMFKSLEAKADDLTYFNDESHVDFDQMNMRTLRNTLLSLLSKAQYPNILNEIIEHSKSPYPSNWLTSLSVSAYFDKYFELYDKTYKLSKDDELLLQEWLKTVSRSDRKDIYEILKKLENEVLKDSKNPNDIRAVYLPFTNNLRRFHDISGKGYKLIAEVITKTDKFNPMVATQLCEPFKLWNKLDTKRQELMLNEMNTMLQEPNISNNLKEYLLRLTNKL
Method: Initial velocities were measured with increasing concentrations of inhibitors and Ki values were determined by Dixon plots in triplicate.

[5] = Octanol/water partition coefficient (logD7.4) by reversed-phase HPLC; conditions: pH 7.4
Method: The flow was 0.9 mL/min. The aminobenzosuberone derivatives were dissolved at 0.4 µM in methanol. The standards were also dissolved in methanol. Column void volume was estimated from the retention time of uracil, which was included as a non-retained internal reference with each injection.

In the case of NC1CCc2c(Br)cccc2CC1=O (centres unmarked) [21e], the IC50 [1] is listed as 104 ± 7 µM, the Ki (E. coli rEcPepN) is listed as 4.59 ± 0.17 µM and the Ki (pAPN from porcine kidney) is listed as 0.02 µM. The Ki [2] was 1.07 ± 0.063 µM, the IC50 [3] was 2.6 ± 0.2 µM and the IC50 [4] was 56 ± 7 µM. For the same compound, the Ki (P. falciparum rPfAM1) was 1 ± 0.04 µM and the chromatographic logD [5] was 1.41.
